# According to ChEMBL document CHEMBL4028887, “Improvement of Cell Permeability of Human Neuronal Nitric Oxide Synthase Inhibitors Using Potent and Selective 2-Aminopyridine-Based Scaffolds with a Fluorobenzene Linker” (J Med Chem, 2017):
# Experiments:
# Nitric oxide synthase 1 [1] = molecular target: Nitric oxide synthase 1 (Homo sapiens, UniProt P29475); assay: Inhibition of human neuronal NOS expressed in Escherichia coli using L-arginine as substrate assessed as reduction in NO production by measuring oxidation of oxyHb to metHb measured for 6 mins by hemoglobin- NO capture assay
# Chain of Nitric oxide synthase 1 (Homo sapiens, UniProt P29475) (P29475 whole entry): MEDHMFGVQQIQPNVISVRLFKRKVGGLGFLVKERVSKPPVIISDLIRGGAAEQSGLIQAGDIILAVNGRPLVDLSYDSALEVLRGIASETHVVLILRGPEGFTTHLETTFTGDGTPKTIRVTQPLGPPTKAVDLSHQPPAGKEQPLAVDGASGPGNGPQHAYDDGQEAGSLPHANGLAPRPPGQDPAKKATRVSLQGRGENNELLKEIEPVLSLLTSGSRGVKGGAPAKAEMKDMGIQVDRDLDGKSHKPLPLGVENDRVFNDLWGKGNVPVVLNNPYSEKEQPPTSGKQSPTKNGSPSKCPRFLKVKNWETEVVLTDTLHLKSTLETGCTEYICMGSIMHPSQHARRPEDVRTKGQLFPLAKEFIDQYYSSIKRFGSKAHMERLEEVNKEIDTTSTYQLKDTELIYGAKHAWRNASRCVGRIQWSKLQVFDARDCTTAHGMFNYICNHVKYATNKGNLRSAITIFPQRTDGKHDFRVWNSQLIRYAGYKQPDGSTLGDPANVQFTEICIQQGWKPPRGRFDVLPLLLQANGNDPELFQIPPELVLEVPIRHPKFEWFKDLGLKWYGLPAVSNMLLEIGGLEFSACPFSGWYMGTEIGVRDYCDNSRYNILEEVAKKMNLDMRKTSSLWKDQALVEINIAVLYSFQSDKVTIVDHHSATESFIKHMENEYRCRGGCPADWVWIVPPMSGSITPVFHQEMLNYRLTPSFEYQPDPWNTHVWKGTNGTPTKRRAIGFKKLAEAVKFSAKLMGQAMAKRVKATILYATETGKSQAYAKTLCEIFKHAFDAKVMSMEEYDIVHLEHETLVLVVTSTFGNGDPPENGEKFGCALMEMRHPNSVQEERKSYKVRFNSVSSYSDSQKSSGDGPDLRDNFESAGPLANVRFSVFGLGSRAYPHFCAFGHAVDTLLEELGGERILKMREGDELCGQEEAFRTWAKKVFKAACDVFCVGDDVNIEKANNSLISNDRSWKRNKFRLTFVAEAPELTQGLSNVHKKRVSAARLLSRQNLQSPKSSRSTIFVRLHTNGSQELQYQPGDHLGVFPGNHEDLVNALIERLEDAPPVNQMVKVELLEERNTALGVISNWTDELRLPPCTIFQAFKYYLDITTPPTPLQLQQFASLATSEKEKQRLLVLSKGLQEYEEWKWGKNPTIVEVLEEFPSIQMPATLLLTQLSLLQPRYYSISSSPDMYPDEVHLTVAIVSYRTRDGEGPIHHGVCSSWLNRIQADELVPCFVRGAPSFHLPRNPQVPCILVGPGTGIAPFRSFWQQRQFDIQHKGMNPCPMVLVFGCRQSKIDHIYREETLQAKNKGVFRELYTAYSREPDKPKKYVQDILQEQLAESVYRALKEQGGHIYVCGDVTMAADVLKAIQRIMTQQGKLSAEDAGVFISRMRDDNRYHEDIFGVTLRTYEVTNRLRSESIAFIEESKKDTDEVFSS
# Nitric oxide synthase 3 = molecular target: T1, Nitric oxide synthase 3 (Homo sapiens, UniProt P29474); format: ADME
# T1 sequence (P29474 whole entry): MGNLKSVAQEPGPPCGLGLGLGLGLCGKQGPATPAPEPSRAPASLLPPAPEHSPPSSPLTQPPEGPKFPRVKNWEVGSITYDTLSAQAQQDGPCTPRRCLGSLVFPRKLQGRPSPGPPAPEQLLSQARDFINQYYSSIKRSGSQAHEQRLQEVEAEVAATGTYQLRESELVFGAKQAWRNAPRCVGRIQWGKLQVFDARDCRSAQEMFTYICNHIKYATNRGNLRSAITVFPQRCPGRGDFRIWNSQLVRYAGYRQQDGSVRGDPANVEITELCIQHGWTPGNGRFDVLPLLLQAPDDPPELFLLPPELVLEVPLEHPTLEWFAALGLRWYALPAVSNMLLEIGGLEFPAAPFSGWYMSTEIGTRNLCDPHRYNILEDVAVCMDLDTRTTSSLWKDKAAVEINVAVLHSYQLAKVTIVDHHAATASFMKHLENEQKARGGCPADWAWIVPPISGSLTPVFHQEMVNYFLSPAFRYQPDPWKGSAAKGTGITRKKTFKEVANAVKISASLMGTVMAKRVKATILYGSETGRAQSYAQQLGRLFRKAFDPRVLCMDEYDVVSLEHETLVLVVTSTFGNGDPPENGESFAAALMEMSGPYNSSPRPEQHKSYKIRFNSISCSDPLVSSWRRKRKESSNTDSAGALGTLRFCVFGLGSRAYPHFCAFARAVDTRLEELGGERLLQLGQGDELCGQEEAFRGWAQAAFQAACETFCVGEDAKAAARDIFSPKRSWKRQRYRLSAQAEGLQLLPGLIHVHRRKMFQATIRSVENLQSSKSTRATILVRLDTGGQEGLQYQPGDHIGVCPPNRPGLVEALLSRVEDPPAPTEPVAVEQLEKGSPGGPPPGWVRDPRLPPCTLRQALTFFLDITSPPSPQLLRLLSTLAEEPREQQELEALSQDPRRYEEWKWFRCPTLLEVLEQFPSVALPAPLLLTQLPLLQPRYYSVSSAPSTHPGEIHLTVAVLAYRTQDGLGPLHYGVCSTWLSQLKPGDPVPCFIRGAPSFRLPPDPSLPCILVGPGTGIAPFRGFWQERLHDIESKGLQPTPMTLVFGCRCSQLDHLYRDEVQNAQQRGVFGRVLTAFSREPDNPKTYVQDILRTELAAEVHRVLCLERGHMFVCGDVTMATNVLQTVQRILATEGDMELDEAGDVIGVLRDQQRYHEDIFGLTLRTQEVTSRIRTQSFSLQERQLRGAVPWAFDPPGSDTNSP
# Nitric oxide synthase 1 [2] = molecular target: Nitric oxide synthase 1 (Rattus norvegicus, UniProt P29476)
# Chain of Nitric oxide synthase 1 (Rattus norvegicus, UniProt P29476) (P29476 whole entry): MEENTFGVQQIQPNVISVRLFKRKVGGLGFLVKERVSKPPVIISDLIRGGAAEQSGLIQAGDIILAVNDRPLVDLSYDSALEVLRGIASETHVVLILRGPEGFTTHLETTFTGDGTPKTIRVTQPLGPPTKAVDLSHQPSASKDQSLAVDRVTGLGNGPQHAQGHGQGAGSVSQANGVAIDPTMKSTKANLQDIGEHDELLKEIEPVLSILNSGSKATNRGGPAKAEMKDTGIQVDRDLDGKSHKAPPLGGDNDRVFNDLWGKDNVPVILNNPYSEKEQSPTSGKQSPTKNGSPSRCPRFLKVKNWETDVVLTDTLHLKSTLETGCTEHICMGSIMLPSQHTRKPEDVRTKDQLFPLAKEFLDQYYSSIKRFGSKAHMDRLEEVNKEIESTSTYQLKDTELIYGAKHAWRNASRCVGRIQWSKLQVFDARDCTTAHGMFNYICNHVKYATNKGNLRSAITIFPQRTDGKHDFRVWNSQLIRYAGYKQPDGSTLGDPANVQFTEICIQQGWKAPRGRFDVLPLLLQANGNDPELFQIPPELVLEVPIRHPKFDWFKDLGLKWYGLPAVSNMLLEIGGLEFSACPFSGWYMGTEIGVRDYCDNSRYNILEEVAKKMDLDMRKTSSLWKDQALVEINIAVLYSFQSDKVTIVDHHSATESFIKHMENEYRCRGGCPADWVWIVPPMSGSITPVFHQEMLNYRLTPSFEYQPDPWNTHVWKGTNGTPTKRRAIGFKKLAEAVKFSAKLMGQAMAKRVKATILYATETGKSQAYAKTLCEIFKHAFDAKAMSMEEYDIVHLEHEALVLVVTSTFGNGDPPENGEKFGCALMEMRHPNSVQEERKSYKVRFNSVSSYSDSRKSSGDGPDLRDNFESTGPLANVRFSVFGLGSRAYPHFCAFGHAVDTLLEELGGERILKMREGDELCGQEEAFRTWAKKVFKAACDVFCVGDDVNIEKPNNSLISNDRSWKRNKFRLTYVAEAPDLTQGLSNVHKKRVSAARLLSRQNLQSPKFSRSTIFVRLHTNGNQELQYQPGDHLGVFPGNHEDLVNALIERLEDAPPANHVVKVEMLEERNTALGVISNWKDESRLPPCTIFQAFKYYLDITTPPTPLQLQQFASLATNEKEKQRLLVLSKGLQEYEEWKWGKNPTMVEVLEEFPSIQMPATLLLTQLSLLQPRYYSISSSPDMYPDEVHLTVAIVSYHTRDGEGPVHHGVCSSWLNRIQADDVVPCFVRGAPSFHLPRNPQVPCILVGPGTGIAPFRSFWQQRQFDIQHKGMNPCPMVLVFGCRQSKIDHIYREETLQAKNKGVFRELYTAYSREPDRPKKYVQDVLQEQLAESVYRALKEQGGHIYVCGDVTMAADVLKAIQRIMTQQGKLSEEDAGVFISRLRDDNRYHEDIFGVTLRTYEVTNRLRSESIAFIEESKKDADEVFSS
# [3] = molecular target: T2, Nitric oxide synthase, inducible (Mus musculus, UniProt P29477)
# T2 sequence (P29477 whole entry): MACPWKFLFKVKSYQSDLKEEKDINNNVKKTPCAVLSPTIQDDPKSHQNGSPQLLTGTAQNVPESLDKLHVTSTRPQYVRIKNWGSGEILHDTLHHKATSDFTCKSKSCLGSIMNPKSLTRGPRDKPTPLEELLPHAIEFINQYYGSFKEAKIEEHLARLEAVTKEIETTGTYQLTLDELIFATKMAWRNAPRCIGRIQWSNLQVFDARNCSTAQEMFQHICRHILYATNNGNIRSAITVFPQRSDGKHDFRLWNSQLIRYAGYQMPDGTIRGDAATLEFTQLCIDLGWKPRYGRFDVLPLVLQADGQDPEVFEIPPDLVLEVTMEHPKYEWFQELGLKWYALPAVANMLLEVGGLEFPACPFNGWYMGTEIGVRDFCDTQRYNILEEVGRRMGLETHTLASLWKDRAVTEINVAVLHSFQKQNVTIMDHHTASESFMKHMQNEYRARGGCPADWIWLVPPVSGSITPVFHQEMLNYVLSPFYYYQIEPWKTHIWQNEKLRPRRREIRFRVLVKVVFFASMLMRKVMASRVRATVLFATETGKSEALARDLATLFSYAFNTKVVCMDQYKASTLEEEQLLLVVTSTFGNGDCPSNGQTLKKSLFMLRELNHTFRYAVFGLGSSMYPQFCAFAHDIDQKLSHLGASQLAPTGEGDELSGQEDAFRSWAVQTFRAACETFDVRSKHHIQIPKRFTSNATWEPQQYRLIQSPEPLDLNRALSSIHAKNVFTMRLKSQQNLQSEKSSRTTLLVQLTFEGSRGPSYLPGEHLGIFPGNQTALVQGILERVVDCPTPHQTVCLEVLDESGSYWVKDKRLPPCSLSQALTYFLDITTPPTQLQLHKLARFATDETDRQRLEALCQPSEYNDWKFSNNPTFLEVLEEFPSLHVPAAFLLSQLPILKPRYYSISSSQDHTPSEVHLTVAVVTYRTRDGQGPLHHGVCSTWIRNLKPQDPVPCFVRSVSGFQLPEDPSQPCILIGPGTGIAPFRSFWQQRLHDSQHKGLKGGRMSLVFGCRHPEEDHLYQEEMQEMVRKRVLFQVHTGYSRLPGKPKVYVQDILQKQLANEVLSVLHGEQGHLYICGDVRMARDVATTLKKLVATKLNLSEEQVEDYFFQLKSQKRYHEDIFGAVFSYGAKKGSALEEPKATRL
# physchem = settings: PAMPA
# Description: Effective permeability of compound at 200 uM after 17 hrs by PAMPA-BBB assay
Structure (SMILES),Ki (Nitric oxide synthase 1 [1]) [nM],Ki (Nitric oxide synthase 3) [nM],Ki (Nitric oxide synthase 1 [2]) [nM],Ki [3] [nM],"Papp at 17 h, 200 µM (physchem) [×10⁻⁶ cm/s]"
CNCc1cccc(-c2cncc(CCc3cc(C)cc(N)n3)c2)c1,82,8670,47,3010,5.56
CNc1cccc(-c2cncc(CCc3cc(C)cc(N)n3)c2)c1,,,1700,6700,
Cc1cc(N)nc(CCc2cccc(CCCN(C)C)c2)c1,43,20800,60,3460,
CNCc1ccc(-c2cc(F)cc(CCc3cc(C)cc(N)n3)c2)cc1,362,69900,185,10900,
Cc1cc(N)nc(CCc2cc(CCCN(C)C)cc(C(F)(F)F)c2)c1,,,541,36000,
CNCCCc1cc(CCc2cc(C)cc(N)n2)cc(C(F)(F)F)c1,598,51500,346,33700,
CNCCCc1cc(C#N)cc(CCc2cc(C)cc(N)n2)c1,516,42100,252,16200,
CNCCCc1cc(F)cc(CCc2cc(C)cc(N)n2)c1,65,39500,41,4650,
Cc1cc(N)nc(CCc2cc(C#N)cc(CCCN(C)C)c2)c1,,,232,16400,
CNCc1ccc(-c2cncc(CCc3cc(C)cc(N)n3)c2)cc1,100,,57,4210,
CNCc1cccc(-c2cc(F)cc(CCc3cc(C)cc(N)n3)c2)c1,83,19400,44,3010,17.4
CNCCCc1cccc(CCc2cc(C)cc(N)n2)c1,55,20100,48,3610,10.4
